What was measured:
AKT phosphorylation = assay: In cellulo IC50 of AKT phosphorylation in CEM cells (Western blot densitometry); format: cell-based; settings: Homo sapiens, CCRF-CEM, 2 hours incubation, AKT phosphorylation vs whole AKT, read-out: In vivo IC50
Method: CEM cells were incubated for 2 hours with the indicated concentrations of each mentioned compound of formula (I). Cells were then lysed and 100 μg of protein was loaded per line in an SDS-PAGE. Bands from AKT phosphorylation and whole AKT observed by Western blot were scanned and quantified by densitometric analysis. Based on these values, an in cellulo IC50 (half maximal inhibitory concentration) was measured for each compound of formula (I).
(§1) Immunoblots Excepted for immunoprecipitation experiments in which cells were lyzed with RIPA buffer, cells were lyzed for 30 min at 4° C. in Lysis buffer (25 mM HEPES pH 7.4, 1% v/v Triton X-100, 150 mM NaCl, 2 mM EGTA supplemented with a mix of protease inhibitors). Protein concentration was determined by the bicinchoninic acid method (Pierce, Rockford, Ill., USA) according to the manufacturer's protocol. Proteins were resolved by 8, 10 or 12% SDS-PAGE and transferred to a nitrocellulose membrane (GE Healthcare, Buckinghamshire, UK). The membrane was blocked 15 min with TBST (50 mM Tris, 160 mM NaCl, 0.05% v/v Tween 20, pH 7.4) containing 5% w/v dried skimmed milk (TBS™). Primary antibody was incubated overnight at 4° C. in TBS™. The membrane was intensively washed (TBST) and then the peroxydase-labeled anti-mouse IgG1 or IgG2a (CliniSciences, Nanterre, France) was added for 45 min. Proteins were visualized with the enhanced chemiluminescence substrate kit (ECL RevelBIOt®, Ozyme, Saint Quentin en Yvelines, France).

MDA-MB-231 cells = assay: Boyden chamber cell migration, MDA-MB-231 stimulated with CD95L; format: cell-based, human; settings: MDA-MB-231, 1 μM, CD95L 100 ng/ml, 24 hours, FIG. 17B
Method: (§2) TNBC (MDA-MB-231 and BT549) cell lines were pre-incubated for 1 hour in presence or absence of non-cytotoxic amount of compound 25 (1 μM) and then treated or untreated with CD95L (100 ng/ml) for 24 hours. Cell migration was analyzed using Boyden chamber assay. Migrating Giemsa-stained cells were lysed and absorbance was measured at a wavelength of 560 nm. Values represent the means±SEM of three independently performed experiments. *p<0.05 as calculated using two-tailed Mann-Whitney test.
(§3) After membrane hydration of Boyden chambers (Millipore, Molsheim, France) containing 8 μm pore membranes, 10^5 cells were added to the top chamber. The bottom chamber was filled with low serum (1%)-containing medium in the presence or absence of cl-CD95L (100 ng/ml). Breast cancer cells were incubated for 24 h. To quantify invasion, cells were fixed with methanol and stained with Giemsa. Stained cells were then removed from the top-side of the membrane using a cotton-tipped swab and five representative pictures for each insert were taken of the invading cells from the reverse side. For each experiment, invading cells were lysed and absorbance at 560 nm was measured.

[1] = test system: TSC2^−/− AML (AngioMyoLipoma) cells; assay: Cell viability by MTT assay on TSC2^−/− and TSC2^+/+ AML cells; format: cell-based, human; settings: 16 hours, 1% fetal calf serum
Method: AML (AngioMyoLipoma) cells from a patient (generous gift from Dr M. Pende, Paris) were enriched for TSC2^−/− cells, as a model of tuberous sclerosis. These cells have been reconstituted with wild type TSC2 (TSC2^+/+). Cell proliferation was assessed in cells from angiomyolipomas and their counterparts reconstituted with wild type TSC2.
Cell viability was assessed by MTT assay. Cells were incubated for 16 hours in a 1% fetal calf serum-containing medium supplemented with the indicated concentrations of the two mTOR inhibitors, compound 25 or rapamycin (see FIGS. 14B and 14C). Data represent mean and standard deviation of three independent experiments.
(§4) Cell viability was assessed using the 3-[4,5-dimethylthiazol-2-yl]-2,5-diphenyltetrazolium bromide (MTT) viability assay (1). In brief, cells (4×10^4 per well) were cultured for 20 h in flat-bottomed 96 well plates with various concentrations of the apoptosis inducer. Then 0.015 ml of MTT (5 mg/ml in PBS) was added to each well and incubated for 4 h at 37° C. Formazan salt precipitats were dissolved by adding 0.115 ml of isopropyl alcohol containing 1% formic acid (v/v), and the absorbance was measured at 570 nm.

[2] = In vivo toxicity, repeated intravenous injections in mice; settings: 10 mg/kg
Method: Mice received repeated intravenous injections of compound 25 (10 mg/kg) or vehicle.

[3] = test system: BT474 (ER-positive/HER2-positive) breast tumor cell line; assay: Cell death by MTT assay, BT474; format: cell-based, human; settings: 24 hours, mean of two experiments
Method: The ER-positive breast tumor cell lines MCF-7 and T47-D and the HER2 positive breast tumor cell lines MDA-MB-453 and BT474 (also ER-positive) were incubated with the indicated concentration of each mentioned compound of formula (I) for 24 hours and then cell death was assessed using MTT assay.
For each cell line, the percentage of cell death (mean of four experiments for cell lines MCF-7 and T47-D, and two experiments for cell lines MDA-MB-453 and BT474) is given in view of the increasing concentration of each tested compound of the invention.
as §4

[4] = biological target: T1, mTOR protein regarding 243 human kinases (Homo sapiens, UniProt P42345); assay: Kinome by KinaseProfiler; format: biochemical; settings: 1 μM, FIG. 11
T1 construct: purchased

[5] = test system: PI3K/AKT activity (AKT phosphorylation); assay: PI3K/AKT/mTOR pathway inhibitory activity: level of AKT phosphorylation in CEM cells over time; format: cell-based, human; settings: 10 μM, FIGS. 7 and 8
Method: The CEM cell was incubated with 10 μM of each mentioned compound of formula (I) for the indicated times and then cells were lysed and 100 μg of protein was loaded per line and resolved by SDS-PAGE. The levels of AKT phosphorylation (hallmark of PI3K activation) and total AKT (loading control) were analyzed by Western blot and the amount of AKT phosphorylation relative to the total amount of protein AKT was quantified by densitometric analysis, the intensity of each band was scanned and the level of AKT phosphorylation was reported to the amount of whole AKT and the percentage of phosphorylated-AKT was depicted.
as §1

BT549 cells = assay: Boyden chamber cell migration, BT549 stimulated with CD95L; format: cell-based, human; settings: BT549, 1 μM, CD95L 100 ng/ml, 24 hours, FIG. 17A
Method: as §2, §3

O=[N+]([O-])C1=Cc2cc(Br)cc(Br)c2OC1c1ccc(Br)cc1 (centres unmarked) [Compound 25, 6,8-dibromo-2-(4-bromo-phenyl)-3-nitro-2H-chromene]
IC50 (AKT phosphorylation): 3000 nM | migration of tumor cells stimulated with CD95L (MDA-MB-231 cells): abrogate | sensitivity of TSC2^−/− cells versus wild type TSC2^+/+ cells (cell death, MTT) ([1]; FIG. 14B): more sensitive | efficiency to kill TSC2^−/− cells compared with rapamycin ([1]; FIGS. 14B and 14C): more efficient | toxicity in mice [2]: did not exhibit toxicity | body weight of the tested mice ([2]; FIG. 13A): maintained | survival of the tested mice ([2]; at 7 days, FIG. 13B): all mice survived | percentage of cell death ([3]; BT474, 6.25 μM): 75.54% | percentage of cell death ([3]; BT474, 12.5 μM): 95.61% | percentage of cell death ([3]; BT474, 25 μM): 90.49% | percentage of cell death ([3]; BT474, 50 μM): 96.81% | selectivity in kinome [4]: selectivity of compound 25 for the mTOR protein | inhibitory activity on PI3K/AKT (level of AKT phosphorylation) [5]: very strong inhibitors | migration of tumor cells stimulated with CD95L (BT549 cells): abrogate
